Assay results published in US20120238019A1, “STEM CELL CULTURE MEDIA FOR MAINTAINING STEMNESS OR INDUCING DIFFERENTIATION OF STEM CELLS” (COLLEGE OF MEDICINE POCHON CHA UNIVERSITY INDUSTRY-ACADEMIC …, priority 2011, published 2012).

Assays:
[1] = tested on: human embryonic stem cells (CHA6 cell line); test: Evaluation of stemness of stem cells cultured in MEF medium (differentiation-inducing) containing PKC inhibitor; type: cell-based; conditions: 5 to 7 days
Description: (§1) Colony clumps (5 colony clumps) of human embryonic stem cells (CHA6 cell line, CHA Medical University, Korea) were seeded to each wells of a 96-well plate coated with Matrigel (BD Biosciences, USA). A differentiation-inducing medium, i.e., MEF medium [Dulbecco's Modified Eagle Medium (DMEM) containing high glucose (WeIGENE, Korea) supplemented with 10% (v/v) FBS (WeIGENE, Korea), 1% (v/v) Penicillin/streptomycin (Caisson), 1% (v/v) NEAA (GIBCO), 0.1 mM beta-mercaptoethanol (GIBCO)], was added to the each wells, which were then cultured at about 37° C., in about 5.0% CO2 incubator. The culture was performed for 5 to 7 days, while replacing the medium with a new medium containing 5 uM of 3-[1-[3-(dimethylamino)propyl]-5-methoxy-1H-indol-3-yl]-4-(1H-indol-3-yl)-1H-pyrrole-2,5-dione)(Gö6983, Calbiochem) as a PKC inhibitor, everyday.
As a control, human embryonic stem cells were cultured in the MEF medium without the PKC inhibitor. And also, human embryonic stem cells were cultured in a differentiation-inhibiting medium, i.e., mTeSR-1 medium containing bFGF, TGF-beta, LiCl, GABA, and pipecolic acid (StemCell Technologies, USA). […]

[2] = tested on: human embryonic stem cells (CHA6 cell line); test: Evaluation of stemness of stem cells cultured in non-conditioned medium containing PKC inhibitor; type: cell-based
Description: as §1, with “The culture was performed for 5 to 7 days, while replacing the medium with a new medium containing 5 uM of 3-[1-[3-(dimethylamino)propyl]-5-methoxy-1H-indol-3-yl]-4-(1H-indol-3-yl)-1H-pyrrole-2,5-dione)(Gö6983, Calbiochem) as a PKC inhibitor, everyday.” left out
Evaluations of stemness were also performed in accordance with the same procedures as in the above (1), using a non-conditioned medium [DMEM/F-12 high-glucose (GIBCO) supplemented with 20% (v/v) knockout serum replacement (GIBCO), 1% (v/v) Penicillin/streptomycin (Caisson), 1% (v/v) NEAA(GIBCO), and 0.1 mM beta-mercaptoethanol (GIBCO)], instead of the MEF medium. In addition, expression levels of Oct4 (Octamer Binding Transcription Factor-4), which is another un-differentiated cell marker, were also evaluated through immunostaining with antibody against Oct4.

[3] = tested on: human embryonic stem cells (CHA6 cell line); test: Evaluation of differentiation of stem cells cultured in mTeSR-1 medium containing PKC activator; type: cell-based
Description: Colony clumps (5 colony clumps) of human embryonic stem cells (CHA6 cell line, CHA Medical University, Korea) were seeded to each wells of a 96-well plate coated with Matrigel (BD Biosciences, USA). A undifferentiation-maintaining medium, i.e., mTeSR-1 medium containing bFGF, TGF-beta, LiCl, GABA, and pipecolic acid (StemCell Technologies, USA), was added to the each wells, which were then cultured at about 37° C., in about 5.0% CO2 incubator. The culture was performed for 5 to 7 days, while replacing the medium with a new medium containing 10 nM of 12-O-tetradecanoylphorbol-13-acetate (TPA) as a PKC activator, everyday. As a control, human embryonic stem cells were cultured in the mTeSR-1 medium without the PKC activator. And also, human embryonic stem cells were cultured in the mTeSR-1 medium treated with both 10 nM of TPA and 5 uM of Go6983.
The cells cultured in the mTeSR-1 medium formed colony shapes, which were conglomerating each other, without differentiation (a in FIG. 3).
As a result of alkaline phosphatase staining, the staining level and colony shape of the cells cultured in the mTeSR-1 medium were similar to those of undifferentiated stem cells (d in FIG. 3).

[4] = tested on: human embryonic stem cells (CHA6 cell line); test: Evaluation of differentiation of stem cells in other undifferentiation-maintaining mediums containing PKC activator; type: cell-based; conditions: FIG. 4
Description: Colony clumps (5 colony clumps) of human embryonic stem cells (CHA6 cell line, CHA Medical University, Korea) were seeded to each wells of a 96-well plate coated with Matrigel (BD Biosciences, USA). […] The culture was performed for 5 to 7 days, while replacing the medium with a new medium containing 10 nM of 12-O-tetradecanoylphorbol-13-acetate (TPA) as a PKC activator, everyday. […]
Evaluations of differentiation were also performed in accordance with the same procedures as in the above (1), using other undifferentiation-maintaining mediums, [i.e., Matrigel (extracellular matrix)/MEF-conditioned medium (Home made; Serum-free media [80% (v/v) DMEM/F12 (GIBCO), 20% (v/v) Knockout serum replacement (GIBCO), 1% (v/v) MEM non-essential amino acids (GIBCO), 0.1 mM β-mercaptoethanol (GIBCO), 1% (v/v) Pennicillin/streptomycin (Caisson)] was conditioned by γ-irradiated CF-1 mouse embryonic fibroblasts (MEF) at 37° C. for 24 hours) and CELLstart (extracellular matrix) (Invitrogen)/and STEMPRO (Invitrogen)], […] In addition, differentiation of other hESC, i.e., H9 hESC line (WiCell, Wis., USA) was also evaluated in the Matrigel (extracellular matrix)/MEF-conditioned medium with a PKC activator.

H9 hESC line = test: Evaluation of differentiation of H9 hESC line in Matrigel/MEF-conditioned medium with PKC activator; type: cell-based, human; conditions: FIG. 4

| SMILES | shape, existence and distribution of the cells (optical microscope, nucleus-staining with DAPI) ([1]; 5 uM PKC inhibitor replaced everyday, Matrigel-coated, FIG. 1 a-f) | alkaline phosphatase expression level (un-differentiated cell marker, staining) ([1]; 5 uM PKC inhibitor, FIG. 1 g-i) | alkaline phosphatase expression level ([2]; NCM containing Gö6983, FIG. 2A f) | Oct4 expression level (immunostaining) ([2]; NCM containing Gö6983, FIG. 2B c) | cell shape under co-treatment with PKC activator (inhibition of TPA-induced differentiation) ([3]; mTeSR-1 medium treated with both 10 nM TPA and 5 uM Gö6983, FIG. 3 c and f) | differentiation, shape and distribution of the cells (optical microscope) ([3]; mTeSR-1 medium, 10 nM TPA replaced everyday, 5 to 7 days, FIG. 3 b) | alkaline phosphatase staining level ([3]; mTeSR-1 medium, 10 nM TPA, FIG. 3 e) | induction of differentiation of hESCs ([4]; CELLstart/STEMPRO medium with PKC activator) | induction of differentiation of hESCs ([4]; Matrigel/MEF-conditioned medium with PKC activator) | induction of differentiation of hESCs (H9 hESC line) |
| --- | --- | --- | --- | --- | --- | --- | --- | --- | --- | --- |
| COc1ccc2c(c1)c(C1=C(c3c[nH]c4ccccc34)C(=O)NC1=O)cn2CCCN(C)C [Gö6983, 3-[1-[3-(dimethylamino)propyl]-5-methoxy-1H-indol-3-yl]-4-(1H-indol-3-yl)-1H-pyrrole-2,5-dione] | maintained colony shapes, which were conglomerating each other | significant increase in alkaline phosphatase expression level | significant increases | significant increases | shapes similar to undifferentiated stem cells |  |  |  |  |  |
| CCCCCCCCCCCCCC(=O)O[C@@H]1[C@@H](C)[C@@]2(O)[C@@H](C=C(CO)C[C@]3(O)C(=O)C(C)=C[C@@H]23)[C@@H]2C(C)(C)[C@]12OC(C)=O [TPA, 12-O-tetradecanoylphorbol-13-acetate] |  |  |  |  |  | differentiated and broadly distributed | very low alkaline phosphatase staining level | induced differentiation of hESCs | induced differentiation of hESCs | induction of differentiation by the PKC activator was also observed |
